From publication PMC4414066 (Journal of medicinal chemistry, 2015)

Legend:
α7nAChR = conditions: previous finding; cited from earlier work
hGlyR-α1 = molecular target: T1, hGlyR-α1 (Homo sapiens, UniProt P23415); assay type: cell-based; conditions: for potentiation effect on the channel current (representative traces): 10 μM modulator, glycine EC5, Figure 5a; for potentiation up to the maximum tested concentration: up to 10 μM, glycine EC5
T1 sequence (P23415 29-457): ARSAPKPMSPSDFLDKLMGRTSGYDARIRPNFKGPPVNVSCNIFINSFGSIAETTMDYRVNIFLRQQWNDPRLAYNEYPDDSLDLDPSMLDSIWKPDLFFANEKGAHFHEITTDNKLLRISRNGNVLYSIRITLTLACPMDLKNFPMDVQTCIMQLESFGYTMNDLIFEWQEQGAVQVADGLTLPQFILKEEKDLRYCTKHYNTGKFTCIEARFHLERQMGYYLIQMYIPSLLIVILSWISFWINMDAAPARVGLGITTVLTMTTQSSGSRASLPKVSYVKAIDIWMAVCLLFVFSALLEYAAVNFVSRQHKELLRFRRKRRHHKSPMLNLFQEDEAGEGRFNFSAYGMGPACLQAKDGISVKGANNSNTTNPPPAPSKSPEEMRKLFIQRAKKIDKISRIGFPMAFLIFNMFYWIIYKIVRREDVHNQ

CCCCCc1cc(O)c2c(c1)OC(C)(C)[C@@H]1CCC(C)=C[C@@H]21 [THC, Δ^9-tetrahydrocannabinol]
effect on α7nAChR function (α7nAChR): little effect

Cc1nc2c([nH]1)-c1ccccc1N(C(=O)c1ccc(NC(=O)c3ccccc3-c3ccccc3)cc1)CC2 [Conivaptan]
potentiation effect on the channel current (representative traces) (hGlyR-α1): no potentiation
potentiation up to the maximum tested concentration (hGlyR-α1): did not show potentiation

O=c1[nH]c2ccccc2n1C1CCN(CCCC(c2ccc(F)cc2)c2ccc(F)cc2)CC1 [Pimozide]
potentiation effect on the channel current (representative traces) (hGlyR-α1): much greater potentiation effect on the channel current than THC

COc1cc(OC)c(NC(=O)Nc2cc(C)on2)cc1Cl [PNU-120596]
potentiation up to the maximum tested concentration (hGlyR-α1): did not show potentiation
